Test results as given in PubChem BioAssay AID1845204 (Molecular Pharmacology Branch, DTP, NCI, 2023).
pIC50: −log10 of the molar value. Values joined by “and” are separate entries in the source; they are usually repeats but may differ in a detail not shown here. Equal entries are not always repeated.

Test system: HSSY-II tumor spheroid viability
Test: Anticancer human tumor HSSY-II cell line growth inhibition;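 also: spheroids exposed to compounds for seven days before reading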;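 as to viability, T/C: percent of DMSO vehicle control viability so 100% = untreated level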
Conditions: spheroids with HUVEC and MSC; for viability, T/C: stronger effect = lower value
Outline: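 Single agents and combinations were tested on spheroids built from tumor cells plus HUVEC and hMSC, at half-log dilutions starting at or near clinical Cmax, else 10 microM; final DMSO 0.25% (v/v).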

Q: How did the pIC50 (curve of first compound, second compound 0.003 µM) turn out when Cn1ncnc1[C@H]1c2n[nH]c(=O)c3cc(F)cc(c23)N[C@@H]1c1ccc(F)cc1 + CC[C@@]1(O)C(=O)OCc2c1cc1n(c2=O)Cc2cc3c(CN(C)C)c(O)ccc3nc2-1 was run?
A: > 8.02

Q: What about the pIC50 (curve of first compound, second compound 0.00949 µM) of the same molecule?
A: > 8.02

Q: What about the pIC50 (curve of first compound, second compound 0.03 µM) of the same molecule?
A: > 8.02

Q: What about the pIC50 (curve of first compound, second compound 0.0949 µM) of the same molecule?
A: > 8.02

Q: What about the pIC50 (curve of first compound, second compound 0.3 µM) of the same molecule?
A: > 8.02

Q: And the viability, T/C (second compound 0.003 µM, first compound 0.00949 µM)?
A: 29.2%

Q: What about the viability, T/C (second compound 0.003 µM, first compound 0.03 µM) of the same molecule?
A: 16.7%

Q: And the viability, T/C (second compound 0.003 µM, first compound 0.0949 µM)?
A: 9.97%

Q: And the viability, T/C (second compound 0.003 µM, first compound 0.3 µM)?
A: 6.78%

Q: What about the viability, T/C (second compound 0.003 µM, first compound 0.949 µM) of the same molecule?
A: 5.19%

Q: What about the viability, T/C (second compound 0.003 µM, first compound 3 µM) of the same molecule?
A: 4.32%

Q: And the viability, T/C (second compound 0.00949 µM, first compound 0.00949 µM)?
A: 7.72%

Q: And the viability, T/C (second compound 0.00949 µM, first compound 0.03 µM)?
A: 5.97%

Q: And the viability, T/C (second compound 0.00949 µM, first compound 0.0949 µM)?
A: 5.6%

Q: And the viability, T/C (second compound 0.00949 µM, first compound 0.3 µM)?
A: 5.88%

Q: What about the viability, T/C (second compound 0.00949 µM, first compound 0.949 µM) of the same molecule?
A: 5.84%

Q: What about the viability, T/C (second compound 0.00949 µM, first compound 3 µM) of the same molecule?
A: 3.69%

Q: What about the viability, T/C (second compound 0.03 µM, first compound 0.00949 µM) of the same molecule?
A: 5.64%

Q: And the viability, T/C (second compound 0.03 µM, first compound 0.03 µM)?
A: 5.6%

Q: And the viability, T/C (second compound 0.03 µM, first compound 0.0949 µM)?
A: 5.25%

Q: And the viability, T/C (second compound 0.03 µM, first compound 0.3 µM)?
A: 5.52%

Q: And the viability, T/C (second compound 0.03 µM, first compound 0.949 µM)?
A: 4.93%

Q: What about the viability, T/C (second compound 0.03 µM, first compound 3 µM) of the same molecule?
A: 3.48%

Q: What about the viability, T/C (second compound 0.0949 µM, first compound 0.00949 µM) of the same molecule?
A: 4.26%

Q: And the viability, T/C (second compound 0.0949 µM, first compound 0.03 µM)?
A: 4.04%

Q: What about the viability, T/C (second compound 0.0949 µM, first compound 0.0949 µM) of the same molecule?
A: 3.48%

Q: What about the viability, T/C (second compound 0.0949 µM, first compound 0.3 µM) of the same molecule?
A: 3.91%

Q: What about the viability, T/C (second compound 0.0949 µM, first compound 0.949 µM) of the same molecule?
A: 3.43%

Q: What about the viability, T/C (second compound 0.0949 µM, first compound 3 µM) of the same molecule?
A: 2.72%

Q: What about the viability, T/C (second compound 0.3 µM, first compound 0.00949 µM) of the same molecule?
A: 3.45%

Q: What about the viability, T/C (second compound 0.3 µM, first compound 0.03 µM) of the same molecule?
A: 4.01%

Q: What about the viability, T/C (second compound 0.3 µM, first compound 0.0949 µM) of the same molecule?
A: 3.37%

Q: What about the viability, T/C (second compound 0.3 µM, first compound 0.3 µM) of the same molecule?
A: 3.5%

Q: And the viability, T/C (second compound 0.3 µM, first compound 0.949 µM)?
A: 2.94%

Q: What about the viability, T/C (second compound 0.3 µM, first compound 3 µM) of the same molecule?
A: 2.13%

Q: What does the source list for Cc1sc2c(c1C)C(c1ccc(Cl)cc1)=NC(CC(=O)Nc1ccc(O)cc1)c1nnc(C)n1-2 (configuration not stated)?
A: viability, T/C (compound 0.00949 µM): 103% and 96.2% and 86.5%; viability, T/C (compound 0.03 µM): 91.5% and 82% and 79.4%; viability, T/C (compound 0.0949 µM): 71.5% and 60.6% and 61.9%; viability, T/C (compound 0.3 µM): 30.2% and 39.3% and 30.7%; viability, T/C (compound 0.949 µM): 18.2% and 16.5% and 16.8%; viability, T/C (compound 3 µM): 11.9% and 11.7% and 9.97%; pIC50 (curve of compound): 6.76 and 6.79 and 6.84

Q: How did the pIC50 (curve of first compound, second compound 1 µM) turn out when COc1cc(C)[nH]c(=O)c1CN1CCc2c(Cl)cc(C(OC)C3COC3)c(Cl)c2C1=O (configuration not stated) + Cn1nnc2c(C(N)=O)ncn2c1=O was run?
A: < 5.00

Q: And the pIC50 (curve of first compound, second compound 3.16 µM)?
A: < 5.00

Q: What about the pIC50 (curve of first compound, second compound 10 µM) of the same molecule?
A: < 5.00

Q: And the pIC50 (curve of first compound, second compound 31.6 µM)?
A: < 5.00

Q: What about the pIC50 (curve of first compound, second compound 100 µM) of the same molecule?
A: < 5.00

Q: What about the viability, T/C (second compound 1 µM, first compound 0.0316 µM) of the same molecule?
A: 96.7%

Q: What about the viability, T/C (second compound 1 µM, first compound 0.1 µM) of the same molecule?
A: 93.1%

Q: And the viability, T/C (second compound 1 µM, first compound 0.316 µM)?
A: 69.1%

Q: What about the viability, T/C (second compound 1 µM, first compound 1 µM) of the same molecule?
A: 69.2%

Q: And the viability, T/C (second compound 1 µM, first compound 3.16 µM)?
A: 63.2%

Q: What about the viability, T/C (second compound 1 µM, first compound 10 µM) of the same molecule?
A: 63%

Q: And the viability, T/C (second compound 3.16 µM, first compound 0.0316 µM)?
A: 96.7%

Q: What about the viability, T/C (second compound 3.16 µM, first compound 0.1 µM) of the same molecule?
A: 84.2%

Q: What about the viability, T/C (second compound 3.16 µM, first compound 0.316 µM) of the same molecule?
A: 76.5%

Q: And the viability, T/C (second compound 3.16 µM, first compound 1 µM)?
A: 66.2%

Q: What about the viability, T/C (second compound 3.16 µM, first compound 3.16 µM) of the same molecule?
A: 64.6%

Q: And the viability, T/C (second compound 3.16 µM, first compound 10 µM)?
A: 60.9%

Q: What about the viability, T/C (second compound 10 µM, first compound 0.0316 µM) of the same molecule?
A: 95.3%

Q: What about the viability, T/C (second compound 10 µM, first compound 0.1 µM) of the same molecule?
A: 94.2%

Q: What about the viability, T/C (second compound 10 µM, first compound 0.316 µM) of the same molecule?
A: 75.6%

Q: What about the viability, T/C (second compound 10 µM, first compound 1 µM) of the same molecule?
A: 66.8%

Q: What about the viability, T/C (second compound 10 µM, first compound 3.16 µM) of the same molecule?
A: 62.7%

Q: What about the viability, T/C (second compound 10 µM, first compound 10 µM) of the same molecule?
A: 63%

Q: What about the viability, T/C (second compound 31.6 µM, first compound 0.0316 µM) of the same molecule?
A: 99.7%

Q: And the viability, T/C (second compound 31.6 µM, first compound 0.1 µM)?
A: 96.3%

Q: And the viability, T/C (second compound 31.6 µM, first compound 0.316 µM)?
A: 76.9%

Q: What about the viability, T/C (second compound 31.6 µM, first compound 1 µM) of the same molecule?
A: 66.8%

Q: And the viability, T/C (second compound 31.6 µM, first compound 3.16 µM)?
A: 65.8%

Q: What about the viability, T/C (second compound 31.6 µM, first compound 10 µM) of the same molecule?
A: 64.6%

Q: What about the viability, T/C (second compound 100 µM, first compound 0.0316 µM) of the same molecule?
A: 96.7%

Q: What about the viability, T/C (second compound 100 µM, first compound 0.1 µM) of the same molecule?
A: 91.4%

Q: What about the viability, T/C (second compound 100 µM, first compound 0.316 µM) of the same molecule?
A: 74.8%

Q: What about the viability, T/C (second compound 100 µM, first compound 1 µM) of the same molecule?
A: 67.4%

Q: What about the viability, T/C (second compound 100 µM, first compound 3.16 µM) of the same molecule?
A: 68.9%

Q: And the viability, T/C (second compound 100 µM, first compound 10 µM)?
A: 63.7%
